Among the data in patent publication US11279735B2, “Cyclic peptide antibiotics” (priority 2017, dated 2022) are MIC values, retold here.

Converted amounts (≈) assume the structure as drawn.

This test deals with Escherichia coli (E. coli) strain CFT073 ATCC 700928. It is filed as cell-based. The note with it: ATCC 700928, 22 h. As to the method:
In vitro antimicrobial activity of each compound was determined by measuring minimal inhibitor concentrations (MICs) using the broth micro-dilution technique as approved by the Clinical and Laboratory Standards Institute (CLSI) (Methods for Dilution Antimicrobial Susceptibility Tests for Bacteria that Grow Aerobically; Approved Standard—Eighth Edition. CLSI document M07-A8. Wayne, Pa.: Clinical and Laboratroy Standards; 2009). Antibacterial activity was measure against Escherichia coli (E. coli) strain CFT073 ATCC 700928, which is a clinically relevant Gram-negative strain. Cells were inoculated onto plates of Mueller Hinton Agar and grown at 37° C. for 16-18 hours. Inocula suspensions were prepared by scraping cells into 1 mL of testing media (Mueller Hinton II cation adjusted Broth supplemented with 0.002% v/v Tween-80) and diluting to a final OD600 nm of 0.01.
Test compounds were prepared in DMSO at a concentration of 100 uM The compounds were tested under several different dilution formats and the data are reported in Tables 6, 7 and 8. In protocol 1, the compound stocks were diluted into testing media at a concentration of 64 μg/ml and serial 2-fold dilutions were made in the same media, in 96-well U bottom microtiter dishes, for a total of 10 compound concentrations. In protocol 2, the compound stocks were diluted into testing media at a concentration of 4 μg/mL and serial 2-fold dilutions were made in the same media, in 96-well U bottom microtiter dishes, for a total of 10 compound concentrations. In protocol 3, compound stocks were diluted into testing media at a concentration of 0.5 μg/mL, with serial 2-fold dilutions conducted as described above. In protocol 4, compound stocks were diluted into testing media at a concentration of 0.13 μg/mL, with serial 2-fold dilutions conducted as described above. Inocula suspensions were added to the 2-fold serial dilutions of test compounds to a final density of OD OD600 nm of 0.0005 and incubated at 35° C. for 22 hours.
With `CCCCCCCCCC[C@H]1OC(=O)CNC(=O)[C@H]([C@H](C)O)NC(=O)[C@H](CN)NC(=O)[C@H]([C@H](C)CC)NC(=O)C(CCC(F)(F)F)N(C)C(=O)[C@@H]1C` (single isomer, unassigned) [Example 17, 9-(aminomethyl)-19-decyl-6-(1-hydroxyethyl)-16,18-dimethyl-12-sec-butyl-15-(3,3,3-trifluoropropyl)-1-oxa-4,7,10,13,16-pentazacyclononadecane-2,5,8,11,14,17-hexone], the MIC (commonly the least concentration at which growth counts as inhibited) turned out to be 25 µM (≈ 18.8 µg/mL).

`CCCCCC[C@H]1OC(=O)CNC(=O)[C@H]([C@H](C)O)NC(=O)[C@H](CN)NC(=O)[C@H](C2CCC(F)(F)CC2)NC(=O)[C@H](CC(C)C)N(C)C(=O)[C@@H]1C` (single isomer, unassigned) [Example 52] showed an MIC of 12 µM (≈ 8.6 µg/mL).

Take `CCCCCCCCCC[C@H]1OC(=O)CNC(=O)[C@H]([C@H](C)O)NC(=O)[C@H](CN)NC(=O)[C@H](C2CCC(F)(F)CC2)NC(=O)[C@H](CC(C)C)N(C)C(=O)[C@@H]1C` (single isomer, unassigned) [Example 53]: the MIC came to 25 µM (≈ 19.3 µg/mL). Compared with the last compound, the MIC is about 2.1-fold higher.

Regarding `CCCCCC[C@H]1OC(=O)CNC(=O)[C@H]([C@H](C)O)NC(=O)[C@H](CN)NC(=O)C(C2CC3CCC2C3)NC(=O)[C@H](CCC)N(C)C(=O)[C@@H]1C` (single isomer, unassigned) [Example 69], the MIC was 8.8 µM (≈ 5.97 µg/mL).

On to `CCC[C@H]1C(=O)N[C@@H](C2CCCCCC2)C(=O)N[C@@H](CN)C(=O)N[C@@H](COC2CC3(CC(N)C3)C2)C(=O)N[C@H](C)CO[C@H](CC2CC3(CCC3)C2)[C@@H](C)C(=O)N1C` (single isomer, unassigned; stereoisomer 1) [Example 166], for which the MIC stood at 1.1 µM (≈ 0.88 µg/mL).

Turning to `CCC[C@H]1C(=O)N[C@@H](C2CCCCCC2)C(=O)N[C@@H](CN)C(=O)N[C@@H](COC2CC3(CC(N)C3)C2)C(=O)N[C@H](C)CO[C@H](CC2CC3(CCC3)C2)[C@@H](C)C(=O)N1C` (single isomer, unassigned; stereoisomer 2) [Example 170], the MIC came out at 0.78 µM (≈ 0.624 µg/mL). This MIC and that of the compound before are within 1.5-fold of each other.

In turn, `CCCCCC[C@@H]1OC(=O)CNC(=O)[C@H](CNC(=O)C2CCNCC2)NC(=O)[C@H](CN)NC(=O)[C@H](C2CCCCC2)NC(=O)[C@H](CC(C)C)N(C)C(=O)[C@@H]1C` (stereo in doubt) [Example 155] registered a minimum inhibitory concentration (MIC) of 18 µM (≈ 14 µg/mL).

On to `CCCCCCC1OC(=O)CNC(=O)[C@H](CNC(=O)Cn2ccnc2)NC(=O)[C@H](CN)NC(=O)[C@H](C2CCCCC2)NC(=O)[C@H](CC(C)C)N(C)C(=O)[C@@H]1C` (stereo in doubt) [Example 160, N-[[(6S,9S,12S,15S,18R,19R)-9-(Aminomethyl)-12-cyclohexyl-19-hexyl-15-isobutyl-16,18-dimethyl-2,5,8,11,14,17-hexaoxo-1-oxa-4,7,10,13,16-pentazacyclononadec-6-yl]methyl]-2-imidazol-1-yl-acetamide], for which the MIC was 71 µM (≈ 55 µg/mL).

Compound `CCCCCCC1OC(=O)CNC(=O)[C@H](CNC(=O)C2CC3(CNC3)C2)NC(=O)[C@H](CN)NC(=O)[C@H](C2CCCCC2)NC(=O)[C@H](CC(C)C)N(C)C(=O)[C@@H]1C` (stereo in doubt) [Example 165, N-[[(6S,9S,12S,15S,18R,19R)-9-(Aminomethyl)-12-cyclohexyl-19-hexyl-15-isobutyl-16,18-dimethyl-2,5,8,11,14,17-hexaoxo-1-oxa-4,7,10,13,16-pentazacyclononadec-6-yl]methyl]-2-azaspiro[3.3]heptane-6-carboxamide] gave an MIC of 4.4 µM (≈ 3.47 µg/mL).

For `CCCCCCCCCC[C@H]1OC(=O)CNC(=O)[C@H]([C@H](C)O)NC(=O)[C@H](CN)NC(=O)[C@H]([C@H](C)CC)NC(=O)[C@H](CC(C)C)N(C)C(=O)[C@@H]1C` [Example 1, (6S,9S,12S,15S,18R,19R)-9-(aminomethyl)-12-((R)-sec-butyl)-19-decyl-6-((S)-1-hydroxyethyl)-15-isobutyl-16,18-dimethyl-1-oxa-4,7,10,13,16-pentaazacyclononadecane-2,5,8,11,14,17-hexaone], the MIC worked out at 3.1 µM (≈ 2.2 µg/mL).
